Measurements from patent EP1500403A1, “PREVENTIVE/REMEDY FOR DIABETES” (Ajinomoto Co., Inc., priority 2002, dated 2003).

Columns and labels:
glucose-loaded rats = experiment: Blood glucose time course after oral glucose loading in rats (Example I); type: in vivo; conditions: Wistar rats, glucose 1 g/kg p.o.
Method: Wistar rats (age of 7 weeks; male) were divided into groups with matched body weights. After 17-hour starvation, glucose was orally given at 1 g/kg to the animals. Immediately after the administration, the inhibitor A of renal glucose reabsorption or the inhibitor B of renal glucose reabsorption (A at 30 mg/kg or 60 mg/kg; B at 30 mg/kg or 80 mg/kg) or glibenclamide (1 mg/kg or 2 mg/kg) or nateglinide (50 mg/kg or 80 mg/kg) was orally given. Additionally, a group on the combined use of both of an inhibitor of renal glucose reabsorption and a hypoglycemic agent was also prepared. A vehicle was orally given to a control group after glucose administration.
Blood glucose was measured in a time course.

glucose-loaded mice = experiment: Blood glucose time course after oral glucose loading in KK mice (Example II); type: in vivo; conditions: glucose 1 g/kg p.o.
Method: KK mice (age of 25 weeks; male) fed with a commercially available high-calories feed for breeding (CMF; Oriental Yeast) were divided into groups with matched body weights. After starvation for 17 hours, glucose was orally given at 1 g/kg. Immediately thereafter, the inhibitor A of renal glucose reabsorption (30 mg/kg or 45 mg/kg) or metformin (200 mg/kg or 300 mg/kg) was orally given. Additionally, a group given with the inhibitor A of renal glucose reabsorption (30 mg/kg) and metformin (200 mg/kg) was prepared. A vehicle was orally given to a control group after glucose dosing.
Blood glucose level was assayed in a time course.

[1] = test system: Type 2 diabetic model GK rats; experiment: Blood glucose after repeated once daily dosing in GK rats (Example III); type: in vivo; conditions: once daily p.o., day 25, glibenclamide 3 mg/kg, inhibitor A 30 mg/kg, or both, vs vehicle-dosed group (Fig. 4)
Method: These agents were orally given once daily at the same time period as in the group administered with a single one agent. Only a vehicle was given orally to a control group. On day 25 after the start of administration, blood glucose was assayed sequentially, to compare the groups in terms of the resulting blood glucose levels.

[2] = test system: Type 2 diabetes model Zucker diabetic fatty rats; experiment: Insulin content in pancreas after repeated dosing in Zucker diabetic fatty rats, ELISA (Example V); type: in vivo; conditions: twice daily p.o., day 39, starved 18 hours, inhibitor A 30 mg/kg, metformin 200 mg/kg, or both, ELISA of pancreas homogenates (Fig. 5)
Method: The agents were orally given twice daily at the same time period as in the case of the groups administered with a single one of these agents. Only a vehicle was orally given twice daily to the animals in a control group. On day 39 from the start of administration, the animals were starved for 18 hours. Then, pancreas was resected from the animals, for the assay of insulin in pancreas homogenates by ELISA, to compare the groups in terms of insulin content in pancreas.

[3] = test system: Renal brush border membrane; experiment: Assessment of inhibitory action of glucose uptake, 14C-D-glucose (Test Example 1A); type: biochemical, rat; conditions: incubation 37 °C 30 minutes, 14C-D-glucose one minute
Method: Test compounds were dissolved in 100 mM mannitol-10 mM HEPES/Tris, pH 7.4 to prepare solutions at various concentrations.
Renal brush border membrane was prepared from a rat kidney, to which a solution of a test compound was added for incubation at 37 °C for 30 minutes. Then, ^14C-D-glucose was added for incubation for one minute. A solution containing 1 mM phlorizin was used to terminate the glucose uptake reaction. The radioactivity ^14C of ^14C-D-glucose incorporated in the renal brush border membrane was counted with a liquid scintillation counter. The glucose uptake independent on sodium was reduced from the glucose uptake in a control group or a test group, to calculate the inhibition intensity.

Male Wistar rats = experiment: Evaluation of urine sugar excretion action in rats (Test Example 1); type: in vivo; conditions: 100 mg/kg p.o. in olive oil, urine collected 24 hours, per individual per day
Method: Male Wistar rats aged 5 weeks (purchased from Charles River Japan, Inc.) were acclimatized in metabolic cages for one week, for use at this experiment. The test compounds suspended in olive oil were prepared into a 20 mg/ml solution to a dose of 5 ml per 1 kg rat body weight.
After the rats were starved for 4 hours, the test compounds were orally given at 100 mg/kg to the rats at 11 am. Immediately after dosing until 24 hours later, urine was collected. The volume of urine was measured. Then, urine sugar concentration was assayed by glucose oxidase method, to calculate the glucose excretion into urine per individual per day.

[4] = glibenclamide 1 mg/kg, inhibitor A 30 mg/kg, or both, p.o., vs vehicle group (Fig. 1)
[5] = inhibitor A 30 mg/kg p.o., vs control group (Fig. 3)

Structure (SMILES): CCc1ccc(Cc2c(O[C@@H]3O[C@H](CO)[C@@H](O)[C@H](O)[C@H]3O)nn(C3CCC3)c2C(F)(F)F)cc1 [1'-cyclobutyl-4'-[(4-ethylphenyl)methyl]-5'-trifluoromethyl-1H-pyrazole-3'-o-β-D-glucopyranoside]
- blood glucose level 120 minutes after glucose loading and thereafter (glucose-loaded rats; [4]): did not lower the blood glucose level 120 minutes after glucose loading and thereafter as greatly as glibenclamide did
- hyperglycemia / blood glucose level immediately after glucose loading (30 minutes) (glucose-loaded rats; [4]): suppressed hyperglycemia
- pattern of glycemic suppression at increased dose (glucose-loaded rats; glibenclamide 2 mg/kg or inhibitor A 60 mg/kg p.o., vs lower dose (Fig. 1)): did not change
- blood glucose level 2 hours later and thereafter (glucose-loaded mice; [5]): could not suppress the blood glucose level
- hyperglycemia 60 minutes after glucose loading (glucose-loaded mice; [5]): could suppress hyperglycemia
- increase of blood glucose / hyperglycemia 30 minutes after glucose loading (glucose-loaded mice; metformin 200 mg/kg or inhibitor A 30 mg/kg p.o., vs control group (Fig. 3)): could suppress hyperglycemia
- pattern of glycemic suppression at elevated dose (glucose-loaded mice; metformin 300 mg/kg or inhibitor A 45 mg/kg p.o., vs lower dose (Fig. 3)): did not change
- blood glucose level [1]: significantly lowered
- insulin content in pancreas [2]: no difference was observed

Structure (SMILES): CSc1ccc(Cc2c(O[C@@H]3O[C@H](CO)[C@@H](O)[C@H](O)[C@H]3O)n[nH]c2C(F)(F)F)cc1 [Compound of Production Example 1-A, 4-((4-methylthiophenyl)methyl)-5-(trifluoromethyl)-1H-pyrazole-3-o-β-D-glucopyranoside]
- Inhibition intensity (concentration of test compound) ([3]; 10 µM test compound): 84 % (10 µM)

Structure (SMILES): CCc1ccc(Cc2c(O[C@@H]3O[C@H](COC(=O)OC)[C@@H](O)[C@H](O)[C@H]3O)nn(C3CCC3)c2C(F)(F)F)cc1 [Compound of Production Example 2, 1'-cyclobutyl-4'-[(4-ethylphenyl)methyl]-5'-trifluoromethyl-1H-pyrazole-3'-o-(6-carbomethoxy)-β-D-glucopyranoside]
- Urine sugar excretion (Male Wistar rats): 656 mg

Structure (SMILES): CCc1ccc(Cc2c(O[C@@H]3O[C@H](C(=O)O)[C@@H](O)[C@H](O)[C@H]3O)n[nH]c2C(F)(F)F)cc1 [Compound of Production Example 2-A, 4-((4-ethylphenyl)methyl)-5-(trifluoromethyl)-1H-pyrazol-3-yl-β-D-glucopyranoside uronic acid]
- Inhibition intensity (concentration of test compound) ([3]; 100 µM test compound): 30 % (100 µM)

Structure (SMILES): CCc1ccc(Cc2c(O[C@@H]3O[C@H](COC(=O)OC)[C@@H](O)[C@H](O)[C@H]3O)nn(C3CCCC3)c2C(F)(F)F)cc1 [Compound of Production Example 4, 1'-cyclopentyl-4'-[(4-ethylphenyl)methyl]-5'-trifluoromethyl-1H-pyrazole-3'-o-(6-carbomethoxy)-β-D-glucopyranoside]
- Urine sugar excretion (Male Wistar rats): 452 mg
